Results on 35 compounds are retold here after patent US20260285857A1, “BICYCLIC AND HETEROCYCLIC AMIDE COMPOUNDS” (priority 2024, published 2026).

The test has as its system immunoglobulin light chain protein WIL-FL T46L. The test is described as follows: Differential scanning fluorimetry (thermal shift) assay. The format is binding. Conditions: Table B; temperature shift [Tm]compound-[Tm]vehicle; recombinant WIL-FL T46L.

Take `Cc1cc(N2CC[C@](C)(c3ccccc3)C2)cn2nc(C34CC(C(=O)Nc5ccnc(C(=O)O)c5)(CO3)C4)nc12` [Compound 456]: the DSF result is on record as “***** (>2.5° C.=*****)”.
Take `Cc1cc(N2CC[C@](C)(c3ccccc3)C2)cn2nc(C34CC(CNC(=O)CC(C)(C)O)(CO3)C4)nc12` [Compound 457, (R)-3-hydroxy-3-methyl-N-((1-(8-methyl-6-(3-methyl-3-phenylpyrrolidin-1-yl)-[1,2,4]triazolo[1,5-a]pyridin-2-yl)-2-oxabicyclo[2.1.1]hexan-4-yl)methyl)butanamide]: the DSF entry was “***** (>2.5° C.=*****)”.
As for `Cc1cc(N2CC[C@](C)(c3ccccc3)C2)cn2nc(C34CC(COCC(=O)O)(CO3)C4)nc12` [Compound 459, 2-[[1-[8-methyl-6-[(3R)-3-methyl-3-phenyl-pyrrolidin-1-yl]-[1,2,4]triazolo[1,5-a]pyridin-2-yl]-2-oxabicyclo[2.1.1]hexan-4-yl]methoxy]acetic acid], the entry is “***** (>2.5° C.=*****)”; as for `Cc1cc(N2CC[C@](C)(c3ccccc3)C2)cn2nc(C34CC(CC(=O)Nc5cccc(C(=O)O)n5)(CO3)C4)nc12` [Compound 460, 6-[[2-[1-[8-methyl-6-[(3R)-3-methyl-3-phenyl-pyrrolidin-1-yl]-[1,2,4]triazolo[1,5-a]pyridin-2-yl]-2-oxabicyclo[2.1.1]hexan-4-yl]acetyl]amino]pyridine-2-carboxylic acid], “***** (>2.5° C.=*****)”; as for `Cc1cc(N2CC[C@](C)(c3ccccc3)C2)cn2nc(C34CC(CNc5cccc(C(=O)O)n5)(CO3)C4)nc12` [Compound 461], “***** (>2.5° C.=*****)”.
As for `CCC(=O)NCC12COC(c3nc4c(C)cc(N5CC[C@](C)(c6ccccc6)C5)cn4n3)(C1)C2` [Compound 462], the entry is “***** (>2.5° C.=*****)”; as for `CCS(=O)(=O)NCC12COC(c3nc4c(C)cc(N5CC[C@](C)(c6ccccc6)C5)cn4n3)(C1)C2` [Compound 463], “***** (>2.5° C.=*****)”; as for `Cc1cc(N2CC[C@](C)(c3ccccc3)C2)cn2nc(C34CC(C#N)(CO3)C4)nc12` [Compound 464, (R)-1-(8-methyl-6-(3-methyl-3-phenylpyrrolidin-1-yl)-[1,2,4]triazolo[1,5-a]pyridin-2-yl)-2-oxabicyclo[2.1.1]hexane-4-carbonitrile], “***** (>2.5° C.=*****)”.
The value for `Cc1cc(N2CC[C@](C)(c3ccccc3)C2)cn2nc(C34CC(Nc5cccc(C(=O)O)n5)(CO3)C4)nc12` [Compound 465, (R)-6-((1-(8-methyl-6-(3-methyl-3-phenylpyrrolidin-1-yl)-[1,2,4]triazolo[1,5-a]pyridin-2-yl)-2-oxabicyclo[2.1.1]hexan-4-yl)amino)picolinic acid] was “***** (>2.5° C.=*****)”; that for `Cc1cc(N2CC[C@](C)(c3ccccc3)C2)cn2nc(C34CC(NC(=O)c5cccc(C(=O)O)n5)(CO3)C4)nc12` [Compound 466, (R)-6-((1-(8-methyl-6-(3-methyl-3-phenylpyrrolidin-1-yl)-[1,2,4]triazolo[1,5-a]pyridin-2-yl)-2-oxabicyclo[2.1.1]hexan-4-yl)carbamoyl)picolinic acid] was “***** (>2.5° C.=*****)”; that for `Cc1cc(N2CC[C@](C)(c3ccccc3)C2)cn2nc(C34CC(NC(=O)C5(C(=O)O)CCC5)(CO3)C4)nc12` [Compound 467] was “***** (>2.5° C.=*****)”.
With `Cc1cc(N2CC[C@](C)(c3ccccc3)C2)cn2nc(C34CC(NC(=O)C5CC(C(=O)O)C5)(CO3)C4)nc12` (some centres unmarked) [Compound 468], the DSF result was “***** (>2.5° C.=*****)”.
As for `Cc1cc(N2CC[C@](C)(c3ccccc3)C2)cn2nc(C34CC(N5CCC(C(=O)O)CC5=O)(CO3)C4)nc12` (stereo partly drawn) [Compound 469, 1-(1-(8-methyl-6-((R)-3-methyl-3-phenylpyrrolidin-1-yl)-[1,2,4]triazolo[1,5-a]pyridin-2-yl)-2-oxabicyclo[2.1.1]hexan-4-yl)-2-oxopiperidine-4-carboxylic acid], the entry is “***** (>2.5° C.=*****)”.
As to `Cc1cc(N2CC[C@](C)(c3ccccc3)C2)cn2nc(C34CC(N5CC6(CC6C(=O)O)C5)(CO3)C4)nc12` (stereo partly drawn) [Compound 470, 5-[1-[8-methyl-6-[(3R)-3-methyl-3-phenyl-pyrrolidin-1-yl]-[1,2,4]triazolo[1,5-a]pyridin-2-yl]-2-oxabicyclo[2.1.1]hexan-4-yl]-5-azaspiro[2.3]hexane-2-carboxylic acid], the DSF entry is given as “***** (>2.5° C.=*****)”.
As for `Cc1cc(N2CC[C@@](C)(n3ccc(C(F)(F)F)n3)C2)cn2nc(C34CC(N)(CO3)C4)nc12` [Compound 471, (R)-1-(8-methyl-6-(3-methyl-3-(3-(trifluoromethyl)-1H-pyrazol-1-yl)pyrrolidin-1-yl)-[1,2,4]triazolo[1,5-a]pyridin-2-yl)-2-oxabicyclo[2.1.1]hexan-4-amine], the entry is “**** (>1.5-2.5° C.=****)”; as for `Cc1cc(N2CC[C@](C)(c3ccccc3)C2)cn2nc(C34CC(N5CCC(C(=O)O)CC5)(CO3)C4)nc12` [Compound 472, (R)-1-(1-(8-methyl-6-(3-methyl-3-phenylpyrrolidin-1-yl)-[1,2,4]triazolo[1,5-a]pyridin-2-yl)-2-oxabicyclo[2.1.1]hexan-4-yl)piperidine-4-carboxylic acid], “***** (>2.5° C.=*****)”.
As for `Cc1cc(N2CC[C@](C)(c3ccccc3)C2)cn2nc(C34CC(CO)(C3)C(C)(C)O4)nc12` [Compound 473, (R)-(3,3-dimethyl-1-(8-methyl-6-(3-methyl-3-phenylpyrrolidin-1-yl)-[1,2,4]triazolo[1,5-a]pyridin-2-yl)-2-oxabicyclo[2.1.1]hexan-4-yl)methanol], the entry is “***** (>2.5° C.=*****)”; as for `Cc1cc(N2CC[C@](C)(c3ccccc3)C2)cn2nc(C3OC4(C)CC3(C(=O)O)C4)nc12` (stereo partly drawn) [Compound 474, 1-methyl-3-[8-methyl-6-[(3R)-3-methyl-3-phenyl-pyrrolidin-1-yl]-[1,2,4]triazolo[1,5-a]pyridin-2-yl]-2-oxabicyclo[2.1.1]hexane-4-carboxylic acid], “**** (>1.5-2.5° C.=****)”; as for `CCC(=O)NC12CC(C)(C1)OC2c1nc2c(C)cc(N3CC[C@](C)(c4ccccc4)C3)cn2n1` (stereo partly drawn) [Compound 475, N-[1-methyl-3-[8-methyl-6-[(3R)-3-methyl-3-phenyl-pyrrolidin-1-yl]-[1,2,4]triazolo[1,5-a]pyridin-2-yl]-2-oxabicyclo[2.1.1]hexan-4-yl]propanamide], “***** (>2.5° C.=*****)”.
On to `Cc1cc(N2CC[C@](C)(c3ccccc3)C2)cn2nc(C3OC4(C)CC3(C(N)=O)C4)nc12` (some centres unmarked) [Compound 476], for which the DSF entry is listed as “***** (>2.5° C.=*****)”.
The value for `Cc1cc(N2CC[C@](C)(c3ccccc3)C2)cn2nc(C34CC(CO3)C4C(=O)Nc3cccc(C(=O)O)n3)nc12` (some centres unmarked) [Compound 478] was “***** (>2.5° C.=*****)”; that for `C[C@]1(c2ccccc2)CCN(c2cc(CO)c3nc(C45CC(CO4)C5c4ncn[nH]4)nn3c2)C1` (some centres unmarked) [Compound 479] was “***** (>2.5° C.=*****)”; that for `Cc1cc(N2CC[C@](C)(c3ccccc3)C2)cn2nc(C34CC(CO3)C4Cn3cc(CO)nn3)nc12` (some centres unmarked) [Compound 481] was “***** (>2.5° C.=*****)”.
The value for `Cc1cc(N2CC[C@](C)(c3ccccc3)C2)cn2nc(C34CC(CO3)C4Cn3ncc(CO)n3)nc12` (some centres unmarked) [Compound 482] was “***** (>2.5° C.=*****)”; that for `Cc1n[nH]c(C2C3COC2(c2nc4c(CN)cc(N5CC[C@](C)(c6ccccc6)C5)cn4n2)C3)n1` (some centres unmarked) [Compound 483] was “***** (>2.5° C.=*****)”; that for `Cc1cc(C2C3COC2(c2nc4c(C)cc(N5CC[C@](C)(c6ccccc6)C5)cn4n2)C3)[nH]n1` (some centres unmarked) [Compound 484] was “***** (>2.5° C.=*****)”.
`Cc1nc(C2C3COC2(c2nc4c(C)cc(N5CC[C@](C)(c6ccccc6)C5)cn4n2)C3)cs1` (some centres unmarked) [Compound 485]: the DSF entry is recorded as “***** (>2.5° C.=*****)”.
The value for `Cc1cc(OC[C@H](C)c2ccccc2)cn2nc(C34CC(CO3)C4Cn3ncnc3C)nc12` (stereo partly drawn) [Compound 486, 8-methyl-2-[5-[(5-methyl-1,2,4-triazol-1-yl)methyl]-2-oxabicyclo[2.1.1]hexan-1-yl]-6-[(2R)-2-phenylpropoxy]-[1,2,4]triazolo[1,5-a]pyridine] was “**** (>1.5-2.5° C.=****)”; that for `Cc1ncn(CC2C3COC2(c2nc4c(C)cc(OC[C@H](C)c5ccccc5)cn4n2)C3)n1` (stereo partly drawn) [Compound 487, 8-methyl-2-(5-((3-methyl-1H-1,2,4-triazol-1-yl)methyl)-2-oxabicyclo[2.1.1]hexan-1-yl)-6-((R)-2-phenylpropoxy)-[1,2,4]triazolo[1,5-a]pyridine] was “*** (>1-1.5° C.=***)”; that for `Cc1cc(N2CC[C@](C)(c3ccccc3)C2)cn2nc(C34CC(CO3)C4CN3CCN(C)C(=O)C3)nc12` (some centres unmarked) [Compound 488] was “***** (>2.5° C.=*****)”.
As for `C[C@]1(c2ccccc2)CCN(c2cc(CO)c3nc(C45CC(CO4)C5CO)nn3c2)C1` (some centres unmarked) [Compound 489], the DSF entry is listed as “***** (>2.5° C.=*****)”.
Turning to `Cc1cc(N2CC[C@](C)(c3ccccc3)C2)cn2nc(C34CC(CO3)C4CN3CCC(C(=O)O)CC3=O)nc12` (some centres unmarked) [Compound 490], the DSF entry was “***** (>2.5° C.=*****)”.
As for `Cc1n[nH]c([C@H]2[C@H]3CO[C@]2(c2nc4c(C)cc(N5CC[C@](C)(c6ccccc6)C5)cn4n2)C3)n1` [Compound 491, 8-methyl-6-[(3R)-3-methyl-3-phenyl-pyrrolidin-1-yl]-2-[(1R,4S,5R)-5-(3-methyl-1H-1,2,4-triazol-5-yl)-2-oxabicyclo[2.1.1]hexan-1-yl]-[1,2,4]triazolo[1,5-a]pyridine], the entry is “***** (>2.5° C.=*****)”; as for `Cc1n[nH]c([C@@H]2[C@@H]3CO[C@@]2(c2nc4c(C)cc(N5CC[C@](C)(c6ccccc6)C5)cn4n2)C3)n1` [Compound 492, 8-methyl-6-[(3R)-3-methyl-3-phenyl-pyrrolidin-1-yl]-2-[(1S,4R,5S)-5-(3-methyl-1H-1,2,4-triazol-5-yl)-2-oxabicyclo[2.1.1]hexan-1-yl]-[1,2,4]triazolo[1,5-a]pyridine], “***** (>2.5° C.=*****)”; as for `Cc1nc(C2C3COC2(c2nc4c(C)cc(N5CC[C@](C)(c6ccccc6)C5)cn4n2)C3)n(C)n1` (some centres unmarked) [Compound 493], “***** (>2.5° C.=*****)”.
